Consider 1 sequence from patent US20260034200A1, “TOLEROGENIC PEPTIDES” (University of Birmingham, priority 2022, published 2026).

Test [1] deals with GAD65 P10-specific T-cell hybridomas. Put plainly: T-cell hybridoma screen with Priess cells as APCs, IL-2 ELISA. Format: cell-based, mouse. Conditions: hybridoma multi-clone 6 with HLA-DRB1*04:01 expressing APCs. The procedure:
HLA-DR4 transgenic mice were injected subcutaneously with Complete Freund's Adjuvant (CFA) and 100 μg of GAD65 P10 30-mer. After 10 days, splenocytes were isolated and re-stimulated with GAD65 P10 30-mer for a further 4-5 days before fusion with hypoxanthine-aminopterin-thymidine (HAT) sensitive BW5147 cells using polyethylene glycol (PEG). Fused hybridomas were expanded in HAT selection media before antigen-specific screening. Co-cultures of 1×10^5 hybridomas and 2×10^5 Priess cells (an Epstein-Barr Virus (EBV) transformed DR4 (DRB1*04:01) expressing human cell line (ECACC 86052111)) as antigen presenting cells (APCs) were incubated for 48 h in a 96-well plate with peptide, whole GAD65 protein, or media only. Antigen-specific responses were determined by IL-2 secretion into culture supernatant by ELISA assay (BioLegend 431004). Hybridomas that proliferated in response to both GAD65 protein and GAD65 30-mer were single cell cloned by limiting dilution.
Six 15-mers that spanned the parent 30-mer amino acid sequence were generated by 3 amino acid shifts from the N-terminus toward the C-terminus.

Test [2] has as its system peripheral blood mononuclear cells (PBMCs). Put plainly: Human PBMC 3H-thymidine incorporation assay. Conditions: for positive response rate in 3H-thymidine incorporation assay: day 7, positive = SI>=3 and ccpm >1000. Format: cell-based. The protocol:
Fresh blood samples were collected in CPDA-tubes. PBMCs from lymphocyte cones or fresh blood were isolated by Ficoll gradient centrifugation, frozen in 40% RPMI-1640, 50% heat inactivated fetal bovine serum (Sigma; F9665) and 10% DMSO and stored in liquid nitrogen until required. Thawed PBMCs were cultured at 1.5×10^6 cells/mL in X-VIVO-15 medium ((Lonza BE02-061Q) supplemented with 5% v/v human AB serum (Sigma H4522), 1× penicillin/streptomycin (Gibco 15140122)) either in the presence of GAD65 P10 30-mer antigen between 20-50 μg/mL or absence of antigen (negative control). Peptide response was measured by 3H radioactive thymidine incorporation on day 5 and day 7, by pulsing cell cultures with ^3H-thymidine (Perkin Elmer), as previously described (Mazza et al., 2002). Positive responses had corrected counts per minute (ccpm) counts >1000 and a stimulation index (SI)≥3, calculated as the fold-change of peptide stimulated condition over the negative control.
The workflow to design and validate tolerogenic apitopes (antigen processing independent T-cell epitopes) begins with identification of peptides predicted to bind to various HLA-DR molecules (pan-DR binders) using a combination of publicly available MHC-binding algorithms (FIG. 1A). In silico analyses identified 9 or 15 amino acid peptides within GAD65 that were extended to ˜30-mer peptides (FIG. 1B) to encourage antigen processing and presentation of a naturally processed epitope (Anderton et al., 2002). To test whether the designed 30-mer peptides could be correctly processed and preferentially induce immune responses in T1D patients, we screened for GAD65 30-mers responses in isolated peripheral blood mononuclear cells (PBMCs) from 20 non-diabetic healthy controls and 40 adults with T1D. […] On day 7 of the ^3H-thymidine incorporation assay, 20% (4/20) of healthy controls had shown a positive response to GAD65 P10 30-mer compared to 58% (23/40) of T1D patients (FIG. 1C).
On the technique in general: Dividing cells build labelled thymidine or BrdU into new DNA.

In the case of “DAAWGGGLLMSRKHKWKLSGVERANSVTWN [P10 30-mer]”, in test [1], the “hybridoma IL-2 response” value is “could respond”. The “average magnitude of the proliferative response” value in test [2] (T1D patients vs healthy controls, Mann-Whitney p=0.0146) is listed as “significantly increased”. For the same sequence, the “positive response rate in 3H-thymidine incorporation assay” value in test [2] (T1D patients (23/40)) is reported as 58%; in test [2] (non-diabetic healthy controls (4/20)), 20%.
